Reference: patent publication US5739121A, “Fluorocyclosaccharide drug delivery systems” (University of Alberta, priority 1993, dated 1998)

What was measured:
[1] = Biodistribution of 6-F3 βCD at 15 minutes after a single intravenous dose; assay type: in vivo, BALB/C mouse; settings: mouse
Protocol: (§1) A Bruker AM-300 (7.05 Tesla, 282.39 Mhz) and a Bruker CXP-100 (2.35 Telsa, 94.26 Mhz, 40 cm. bore) spectrometer were used for ^19 F NMR spectroscopy. The CXP-100 spectrometer was used with a 20 mm diameter, three turn horizontal coil. The biodistribution and excretion study of Example 4 was performed on the CXP-100 spectrometer, while ^1 H, ^13 C and ^19 F NMR spectra for synthesized compounds, blood, urine and extracts of liver were obtained using the Bruker AM-300 instrument. The ^19 F NMR were acquired over a spectral width of 70.0 ppm (between +60.0 and -10.0 ppm). The number of scans varied from 2.5 k to 45 k scans depending on the size of biological samples. An aqueous solution of chromium acetate (90 μL; 0.1M) was used as a relaxation agent to enhance the S/N ratio. Exponential line broadening of 0-40 Hz was imposed on the data prior to Fourier transformation. An aqueous solution of potassium fluoride (5 μL; 0.2M) was used as an internal standard during acquisition of ^19 F NMR spectra while ^1 H and ^13 C NMR spectra were locked on deuterium. D2 O was used as a solvent for samples of blood, urine and liver extract) which appeared at δ4.68 ppm (^1 H NMR spectra) with respect to tetramethylsilane. The resolution limits for ^1 H, ^13 C and ^19 F were observed between 0.5-1.1, 2.0-3.0 and 1.3-20.0 Hz, respectively. The chemical shifts are reported in δ ppm.
6-F3 βCD (90 mg/ml in water) was administered to a BALB/C mouse by intravenous injection through the tail vein, at a dose of 13.5 mg 6-F3 βCD per mouse. The mouse was placed in a beaker layered with filter paper to absorb the urine excreted during the experiment. 15 minutes after administration of the drug complex, blood was collected by cardiac puncture, the mouse was sacrificed by euthanasia in dry ice and the desired organs were collected by dissection. All samples were immediately frozen and held frozen until NMR studies.

[2] = Metabolic degradation after intravenous injection of 6-F3 βCD; assay type: in vivo, BALB/C mouse; settings: mouse, i.v. injection, over the first fifteen minutes; 15 min
Protocol: as §1, with “ppm. […]” for “ppm.”

% Dose in tail ([1]; single i.v. 13.5 mg per mouse (tail vein), tail): 2.14 % Dose
% Dose in blood ([1]; single i.v. 13.5 mg per mouse, blood): 62.59 % Dose
% Dose in intestine ([1]; single i.v. 13.5 mg per mouse, intestine): 0.72 % Dose
% Dose in kidney ([1]; single i.v. 13.5 mg per mouse, kidney): 1.87 % Dose
% Dose in liver ([1]; single i.v. 13.5 mg per mouse, liver): 4.09 % Dose
% Dose in urine ([1]; single i.v. 13.5 mg per mouse, urine): 40.96 % Dose
metabolic degradation, share of the administered dose [2]: less than 5%
SMILES: O[C@@H]1[C@@H](O)[C@H]2O[C@H]3[C@H](O)[C@@H](O)[C@@H](O[C@H]4[C@H](O)[C@@H](O)[C@@H](O[C@H]5[C@H](O)[C@@H](O)[C@@H](O[C@H]6[C@H](O)[C@@H](O)[C@@H](O[C@H]7[C@H](O)[C@@H](O)[C@@H](O[C@H]8[C@H](O)[C@@H](O)[C@@H](O[C@@H]1[C@@H](COCC(F)(F)F)O2)O[C@@H]8COCC(F)(F)F)O[C@@H]7COCC(F)(F)F)O[C@@H]6COCC(F)(F)F)O[C@@H]5COCC(F)(F)F)O[C@@H]4COCC(F)(F)F)O[C@@H]3COCC(F)(F)F [6-F3 βCD, Heptakis [6.0-(2,2,2-trifluoroethyl)]-β-cyclodextrin]
